# Activity calls are given as the source filed them. The calls are words filed in the database; no cut-off is given here.
# What was measured:
# Acinetobacter baumannii = assay: Antibacterial activity against Acinetobacter baumannii assessed as inhibition of bacterial growth by continuous dilution method; type: functional
# Staphylococcus aureus [1] = assay: Antibacterial activity against Staphylococcus aureus ATCC 25923 assessed as inhibition of bacterial growth by continuous dilution method; type: functional
# Staphylococcus aureus [2] = assay: Antibacterial activity against Staphylococcus aureus ATCC 29213 assessed as inhibition of bacterial growth by continuous dilution method; type: functional
# Enterococcus faecalis [3] = assay: Effect on cell morphology in Enterococcus faecalis assessed as cell shrank at 2 times of MIC incubated for 4 hrs by scanning electron microscopic analysis; type: functional, organism-based
# Cell membrane [4] = assay: Induction of inner membrane permeabilization in Enterococcus faecalis at 4 times of MIC measured at 25 mins by PI staining under fluorescence microscopic analysis
# Enterococcus faecalis [5] = assay: Antibacterial activity against Enterococcus faecalis p1-2007226001 assessed as inhibition of bacterial growth by continuous dilution method; type: functional
# Staphylococcus aureus [6] = assay: Antibacterial activity against Staphylococcus aureus assessed as inhibition of bacterial growth by continuous dilution method; type: functional
# Cell membrane [7] = assay: Induction of cytoplasmic membrane depolarization in Enterococcus faecalis at 4 times of MIC by DiSC35 dye-based fluorescence assay; settings: time <= 80.0 min, TDE = time-dependent effect
# Enterococcus faecalis [8] = assay: Antibacterial activity against Enterococcus faecalis assessed as reduction in metabolic activity at 0.5 to 8 times of MIC by alamar blue staining based assay; type: functional, organism-based
# [9] = Hemolytic activity in human RBC assessed as hemolysis at 512 times of MIC measured after 1 hr; type: toxicity, cell-based, Erythrocyte; settings: red blood cells (erythrocytes), read-out: Activity
# Enterococcus faecalis [10] = assay: Induction of intracellular ROS generation in Enterococcus faecalis by DCFH-DA staining based fluorescence microscopic analysis; type: functional, organism-based
# Enterococcus faecalis [11] = assay: Antibacterial activity against Enterococcus faecalis assessed as log reduction in bacterial growth measured after 6 hrs by continuous dilution method; type: functional
# Enterococcus faecalis [12] = assay: Antibacterial activity against Enterococcus faecalis assessed as inhibition of bacterial growth by continuous dilution method; type: functional
# Escherichia coli [13] = assay: Antibacterial activity against Escherichia coli ATCC 25922 assessed as inhibition of bacterial growth by continuous dilution method; type: functional
# Enterococcus faecalis [14] = assay: Antibacterial activity against Enterococcus faecalis assessed as reduction in bacterial growth measured after 16 passages by continuous dilution method; type: functional, organism-based
# Enterococcus faecalis [15] = assay: Antibiofilm activity against Enterococcus faecalis assessed as inhibition of biofilm formation at 0.5 to 6 times of MIC by crystal violet staining based analysis; type: functional, organism-based
# Enterococcus faecalis [16] = assay: Induction of oxidative stress in Enterococcus faecalis assessed as decrease in GSH activity at 0.5 to 16 times of MIC by Ellman's method; type: functional, organism-based
# Escherichia coli [17] = assay: Antibacterial activity against Escherichia coli assessed as inhibition of bacterial growth by continuous dilution method; type: functional
# Klebsiella pneumoniae = assay: Antibacterial activity against Klebsiella pneumoniae assessed as inhibition of bacterial growth by continuous dilution method; type: functional
# Calf thymus DNA [18] = assay: Binding affinity to calf thymus DNA assessed as compound DNA complex formation by UV-Vis spectrophotometric analysis; type: nucleic-acid assay; settings: Bos taurus
# [19] = Cytotoxicity against human FHC cells assessed as cell viability rate at 20 ug/ml; type: toxicity, cell-based; settings: at 20 µg/mL, read-out: Activity
# Staphylococcus aureus [20] = assay: Antibacterial activity against methicillin-resistant Staphylococcus aureus N315 assessed as inhibition of bacterial growth by continuous dilution method; type: functional
# Calf thymus DNA [21] = assay: Binding affinity to calf thymus DNA assessed as compound DNA complex formation by measuring fluorescence intensity by acridine orange dye based competitive binding assay; type: nucleic-acid assay; settings: Bos taurus
# Pseudomonas aeruginosa [22] = assay: Antibacterial activity against Pseudomonas aeruginosa ATCC 27853 assessed as inhibition of bacterial growth by continuous dilution method; type: functional
# Enterococcus faecalis [23] = assay: Effect on cell morphology in Enterococcus faecalis assessed as cell deformation at 2 times of MIC incubated for 4 hrs by scanning electron microscopic analysis; type: functional, organism-based
# [24] = Cytotoxicity against human NOK-SI cells assessed as cell viability rate at 20 ug/ml; type: toxicity, cell-based; settings: at 20 µg/mL, read-out: Activity
# Enterococcus faecalis [25] = assay: Antibacterial activity against Enterococcus faecalis p1-2007225053 assessed as inhibition of bacterial growth by continuous dilution method; type: functional
# Enterococcus faecalis [26] = assay: Antibiofilm activity against Enterococcus faecalis assessed as inhibition of biofilm formation at 6 times of MIC by crystal violet staining based analysis; type: functional; design: scale not given: the % may be the effect or the level left
# Cell membrane [27] = assay: Disruption of cell membrane integrity in Enterococcus faecalis assessed as increase in protein leakage by Bradford assay
# Calf thymus DNA [28] = assay: Binding affinity to calf thymus DNA assessed as reduction in NR-DNA complex formation by measuring fluorescence intensity by competitive binding assay; type: nucleic-acid assay; settings: Bos taurus
# Pseudomonas aeruginosa [29] = assay: Antibacterial activity against Pseudomonas aeruginosa assessed as inhibition of bacterial growth by continuous dilution method; type: functional
smiles,measurement,setting,value
CC(=O)Nc1ccc(S(=O)(=O)C/C(=N/NC(=O)c2ccccn2)c2nccs2)cc1,MIC,Acinetobacter baumannii,32 µg/mL
same,MIC,Staphylococcus aureus [1],4 µg/mL
same,MIC,Staphylococcus aureus [2],256 µg/mL
same,Activity,Enterococcus faecalis [3],Active
same,Activity,Cell membrane [4],Active
same,MIC,Enterococcus faecalis [5],4 µg/mL
same,MIC,Staphylococcus aureus [6],4 µg/mL
same,Activity,Cell membrane [7],Tde
same,Activity,Enterococcus faecalis [8],Active
same,"hemolysis at 1 h, 512 times of MIC",[9],< 3%
same,Activity,Enterococcus faecalis [10],Dose-Dependent Effect
same,Activity,Enterococcus faecalis [11],Dose-Dependent Effect
same,log(activity),Enterococcus faecalis [11],3
same,MIC,Enterococcus faecalis [12],1 µg/mL
same,MIC,Escherichia coli [13],64 µg/mL
same,Activity,Enterococcus faecalis [14],Active
same,Activity,Enterococcus faecalis [15],Active
same,Activity,Enterococcus faecalis [16],Active
same,MIC,Escherichia coli [17],32 µg/mL
same,MIC,Klebsiella pneumoniae,64 µg/mL
same,Activity,Calf thymus DNA [18],Active
same,viability at 20 ug/ml,[19],45%
same,MIC,Staphylococcus aureus [20],64 µg/mL
same,Activity,Calf thymus DNA [21],Active
same,MIC,Pseudomonas aeruginosa [22],32 µg/mL
same,Activity,Enterococcus faecalis [23],Active
same,viability at 20 ug/ml,[24],65%
same,MIC,Enterococcus faecalis [25],2 µg/mL
same,Activity,Enterococcus faecalis [26],35%
same,Activity,Cell membrane [27],Dose-Dependent Effect
same,Activity,Calf thymus DNA [28],Active
same,MIC,Pseudomonas aeruginosa [29],128 µg/mL
CCn1cc(C(=O)O)c(=O)c2cc(F)c(N3CCNCC3)cc21 [NORFLOXACIN],MIC,Acinetobacter baumannii,4 µg/mL
same,MIC,Staphylococcus aureus [1],4 µg/mL
same,MIC,Staphylococcus aureus [2],2 µg/mL
same,MIC,Enterococcus faecalis [5],4 µg/mL
same,MIC,Staphylococcus aureus [6],4 µg/mL
same,MIC,Enterococcus faecalis [12],8 µg/mL
same,MIC,Escherichia coli [13],4 µg/mL
same,MIC,Escherichia coli [17],16 µg/mL
same,MIC,Klebsiella pneumoniae,8 µg/mL
same,MIC,Staphylococcus aureus [20],8 µg/mL
same,MIC,Pseudomonas aeruginosa [22],2 µg/mL
same,MIC,Enterococcus faecalis [25],8 µg/mL
same,MIC,Pseudomonas aeruginosa [29],2 µg/mL
CCO/N=C(/CS(=O)(=O)c1ccc(NC(C)=O)cc1)c1nccs1,MIC,Acinetobacter baumannii,256 µg/mL
same,MIC,Staphylococcus aureus [1],128 µg/mL
same,MIC,Staphylococcus aureus [2],64 µg/mL
same,MIC,Staphylococcus aureus [6],128 µg/mL
same,MIC,Enterococcus faecalis [12],32 µg/mL
same,MIC,Escherichia coli [13],16 µg/mL
same,MIC,Escherichia coli [17],32 µg/mL
same,MIC,Klebsiella pneumoniae,64 µg/mL
same,MIC,Staphylococcus aureus [20],64 µg/mL
same,MIC,Pseudomonas aeruginosa [22],64 µg/mL
same,MIC,Pseudomonas aeruginosa [29],128 µg/mL
Nc1ccc(S(=O)(=O)Nc2nccs2)cc1 [SULFATHIAZOLE],MIC,Acinetobacter baumannii,128 µg/mL
same,MIC,Staphylococcus aureus [1],64 µg/mL
same,MIC,Staphylococcus aureus [2],128 µg/mL
same,MIC,Staphylococcus aureus [6],128 µg/mL
same,MIC,Enterococcus faecalis [12],128 µg/mL
same,MIC,Escherichia coli [13],128 µg/mL
same,MIC,Escherichia coli [17],256 µg/mL
same,MIC,Klebsiella pneumoniae,128 µg/mL
same,MIC,Staphylococcus aureus [20],64 µg/mL
same,MIC,Pseudomonas aeruginosa [22],512 µg/mL
same,MIC,Pseudomonas aeruginosa [29],128 µg/mL
CC(=O)Nc1ccc(S(=O)(=O)/C(=C\c2ccc(F)cc2)C(=O)c2nccs2)cc1,MIC,Acinetobacter baumannii,64 µg/mL
same,MIC,Staphylococcus aureus [1],256 µg/mL
same,MIC,Staphylococcus aureus [2],128 µg/mL
same,MIC,Staphylococcus aureus [6],128 µg/mL
same,MIC,Enterococcus faecalis [12],128 µg/mL
same,MIC,Escherichia coli [13],64 µg/mL
same,MIC,Escherichia coli [17],128 µg/mL
same,MIC,Klebsiella pneumoniae,128 µg/mL
same,MIC,Staphylococcus aureus [20],128 µg/mL
same,MIC,Pseudomonas aeruginosa [22],64 µg/mL
same,MIC,Pseudomonas aeruginosa [29],256 µg/mL
CC(=O)Nc1ccc(S(=O)(=O)/C(=C\c2ccc(C)cc2)C(=O)c2nccs2)cc1,MIC,Acinetobacter baumannii,256 µg/mL
same,MIC,Staphylococcus aureus [1],256 µg/mL
same,MIC,Staphylococcus aureus [2],256 µg/mL
same,MIC,Staphylococcus aureus [6],256 µg/mL
same,MIC,Enterococcus faecalis [12],128 µg/mL
same,MIC,Escherichia coli [13],256 µg/mL
same,MIC,Escherichia coli [17],256 µg/mL
same,MIC,Klebsiella pneumoniae,256 µg/mL
same,MIC,Staphylococcus aureus [20],128 µg/mL
same,MIC,Pseudomonas aeruginosa [22],128 µg/mL
same,MIC,Pseudomonas aeruginosa [29],128 µg/mL
CC(=O)Nc1ccc(S(=O)(=O)/C(=C\c2ccc(Cl)cc2Cl)C(=O)c2nccs2)cc1,MIC,Acinetobacter baumannii,256 µg/mL
same,MIC,Staphylococcus aureus [1],64 µg/mL
same,MIC,Staphylococcus aureus [2],256 µg/mL
same,MIC,Staphylococcus aureus [6],128 µg/mL
same,MIC,Enterococcus faecalis [12],128 µg/mL
same,MIC,Escherichia coli [13],256 µg/mL
same,MIC,Escherichia coli [17],256 µg/mL
same,MIC,Klebsiella pneumoniae,128 µg/mL
same,MIC,Staphylococcus aureus [20],128 µg/mL
same,MIC,Pseudomonas aeruginosa [22],128 µg/mL
same,MIC,Pseudomonas aeruginosa [29],128 µg/mL
CC(=O)Nc1ccc(S(=O)(=O)C/C(=N/Nc2ccc([N+](=O)[O-])cc2)c2nccs2)cc1,MIC,Acinetobacter baumannii,256 µg/mL
same,MIC,Staphylococcus aureus [1],256 µg/mL
same,MIC,Staphylococcus aureus [2],256 µg/mL
same,MIC,Staphylococcus aureus [6],32 µg/mL
same,MIC,Enterococcus faecalis [12],256 µg/mL
same,MIC,Escherichia coli [13],32 µg/mL
same,MIC,Escherichia coli [17],64 µg/mL
same,MIC,Klebsiella pneumoniae,256 µg/mL
same,MIC,Staphylococcus aureus [20],256 µg/mL
same,MIC,Pseudomonas aeruginosa [22],64 µg/mL
same,MIC,Pseudomonas aeruginosa [29],32 µg/mL
C=CCO/N=C(/CS(=O)(=O)c1ccc(NC(C)=O)cc1)c1nccs1,MIC,Acinetobacter baumannii,128 µg/mL
same,MIC,Staphylococcus aureus [1],32 µg/mL
same,MIC,Staphylococcus aureus [2],64 µg/mL
same,MIC,Staphylococcus aureus [6],128 µg/mL
same,MIC,Enterococcus faecalis [12],32 µg/mL
same,MIC,Escherichia coli [13],16 µg/mL
same,MIC,Escherichia coli [17],64 µg/mL
same,MIC,Klebsiella pneumoniae,64 µg/mL
same,MIC,Staphylococcus aureus [20],64 µg/mL
same,MIC,Pseudomonas aeruginosa [22],64 µg/mL
same,MIC,Pseudomonas aeruginosa [29],128 µg/mL

# — ChEMBL document CHEMBL5325403, “Benzenesulfonyl thiazoloimines as unique multitargeting antibacterial agents towards Enterococcus faecalis” (Eur J Med Chem, 2023)
